One assay has as its target T1, rat EP1 receptor (Rattus norvegicus, UniProt P70597).
T1 construct: expressed in transfected cells
T1 sequence (P70597 1-405): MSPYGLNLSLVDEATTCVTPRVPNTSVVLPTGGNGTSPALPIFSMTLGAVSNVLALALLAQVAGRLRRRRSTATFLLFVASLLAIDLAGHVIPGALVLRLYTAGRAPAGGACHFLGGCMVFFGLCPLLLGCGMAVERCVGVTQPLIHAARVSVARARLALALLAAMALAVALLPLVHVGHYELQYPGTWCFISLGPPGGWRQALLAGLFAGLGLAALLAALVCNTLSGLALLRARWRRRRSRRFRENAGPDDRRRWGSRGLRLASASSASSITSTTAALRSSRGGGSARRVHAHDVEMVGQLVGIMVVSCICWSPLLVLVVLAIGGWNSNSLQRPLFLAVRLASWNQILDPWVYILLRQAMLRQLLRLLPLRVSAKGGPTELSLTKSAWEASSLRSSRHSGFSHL
Kind of assay: Selectivity test: antagonistic action on rat EP1 receptor (intracellular Ca2+, HEK-293 cells). The following applies: PGE2 100 nmol/L, HEK-293 cells stably expressing rat EP1; read-out: Concentration up to which no inhibitory action of 50% or more on the increase in intracellular Ca2+ concentration due to PGE2 through the rat EP1 receptor. The class given is cell-based. The protocol:
(§1) Test Example 9: Evaluation Test of Receptor Antagonistic Action on Rat EP1/EP2/EP3 Receptor (Selectivity Test)
(§2) The antagonistic action of Compound A on other subtypes ([…], EP2, and EP3) of the rat-derived PGE2 receptor was evaluated. For EP1 and EP3, the intracellular Ca^2+ amount was used as an indicator, and for EP2, the intracellular cAMP amount was used as an indicator, so as to investigate the action of the test compound.
(§3) Construction of Rat EP1, EP2, or EP3 Receptor Expressing Vector: A rat EP1 receptor gene (GenBank accession No.: D88751.1), a rat EP2 receptor gene (GenBank accession No.: NM_031088.1), or a rat EP3 receptor gene (GenBank accession No.: NM_012704.1) were inserted respectively into an expression vector pcDNA3.1-V5-His-TOPO (Invitrogen Inc.).
(§4) Construction of Cell Stably Expressing Rat EP1, EP2, or EP3 Receptor: […]
(§5) The intracellular Ca^2+ concentration was measured using FLIPR tetra (Molecular Devices, LLC.) with the fluorescence intensity of the Dye as an indicator. […] By taking the Ca^2+ concentration when PGE2 was added to a final concentration of 100 nmol/L as 100%, and taking the Ca^2+ concentration when PGE2 was not added as 0%, the Ca^2+ concentration in percentage with a treatment with the compound was calculated.

For a further assay, the target named is T2, rat EP3 receptor (Rattus norvegicus, UniProt P34980).
T2 construct: expressed in transfected cells
T2 sequence (P34980 1-365): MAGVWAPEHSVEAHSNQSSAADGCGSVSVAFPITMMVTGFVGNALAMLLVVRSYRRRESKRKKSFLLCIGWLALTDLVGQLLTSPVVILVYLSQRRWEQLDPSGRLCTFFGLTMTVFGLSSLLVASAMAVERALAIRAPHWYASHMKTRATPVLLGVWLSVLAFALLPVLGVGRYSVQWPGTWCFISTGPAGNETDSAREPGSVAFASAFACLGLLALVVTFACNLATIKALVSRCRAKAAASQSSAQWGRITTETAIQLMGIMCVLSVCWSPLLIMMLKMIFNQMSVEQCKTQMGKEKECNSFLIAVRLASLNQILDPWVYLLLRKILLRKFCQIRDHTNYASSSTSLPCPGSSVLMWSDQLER
Description: Selectivity test: antagonistic action on rat EP3 receptor (intracellular Ca2+, HEK-293 cells). Format: cell-based. The following applies: PGE2 100 nmol/L, HEK-293 cells stably expressing rat EP3; read-out: Concentration up to which no inhibitory action of 50% or more on the increase in intracellular Ca2+ concentration due to PGE2 through the rat EP3 receptor. On the procedure:
as §1, §2, §3, §4, §5

On to `Cc1nn(Cc2cc3ccccc3cn2)c(C(=O)N[C@@H](C)c2ccc(C(=O)O)cc2)c1Br` [Compound A, 4-[(1S)-1-({[4-bromo-1-(isoquinolin-3-ylmethyl)-3-methyl-1H-pyrazol-5-yl]carbonyl}amino)ethyl]benzoic acid], for which the IC50 on rat EP1 receptor and on rat EP3 receptor was over 10 µM in each case.

The record behind these values is US10106523B2, “Amide compound” (ASTELLAS PHARMA INC., priority 2014, dated 2018).
